Measurements reported in US20170198027A1 (priority 2012, published 2017).
Values joined by “and” are separate entries in the source; they are usually repeats but may differ in a detail not shown here. Equal entries are not always repeated. Where two headings read alike, the source gives them in different places.

Legend:
[1] = tested on: ApoE ko mice fed with high fat diet
Text: 10 ApoE ko mice were fed with regular chow diet and used as negative control group. 50 ApoE ko mice were fed with high fat diet (35% kcal fat, 1% cholesterol) for 8 weeks, and then the plasma samples were collected for lipid profile measurement before the treatment. 50 ApoE ko mice were assigned into 5 groups based on the fasting overnight plasma TC and HDL level.
19 Mar. 2012 to 6 Apr. 2012: Group the mice based on the TC and HDL level and start the treatment with 3 doses of antibody APOA1 by i.p daily on the weekday (The first dose was administered by iv injection
13 Apr. 2012-14 May 2012: The treatment with antibody APOA1 was changed to i.p injection every two days (Monday, Wednesday, and Friday) per client's instruction.
Antibody products were administrated by intraperitoneal injection every two days (Monday, Wednesday, and Friday). and the positive compound was administered by p.o every day.
5.4. Body weight and blood glucose measurement: The body weight was weighed weekly during the period of treatment. The fasting overnight blood glucose was measured at the end of study by Roche glucometer.
5.5 24 h food intake measurement: 24 hours food intake for each cage was measured weekly
5.6. Plasma lipid profile measurement: About 300 ul of blood sample was collected from the orbital vein for each mouse and centrifuged at 7000 rpm for 5 min at 4° C. and the plasma lipid profile was measured by Roche Modular automatic biochemistry analyzer in DaAn Medical Laboratory
After RAAS antibody products treatment for 8 weeks, all mice were sacrificed. Measured body weight and collected blood sample for each mouse. Weighed liver weight and saved a tiny piece of liver into 4% paraformaldehyde (PFA) fixation solution for further analysis. At same time, take the photos with heart, lung, aortas and two kidneys.
Scanning the glasses slides with the Aperio ScanScope system and analyze with the image proplus software to measure the area of atherosclerotic plaque session. The results were expressed as the percentage of the total aortic surface area covered by lesions. The operation procedure of software was briefly described as follow: Converted the sys version photos into JPG version, then calibrated it and subsequently selected the red regions and then calculate the total area automatically by image proplus software.
(§1) The results were expressed as the Mean±SEM and statistically evaluated by student's t-test.

HBV = HBV mouse hydrodynamic injection model; type: in vivo, BALB/c mice
Description: 3.1.1. From day −7 to day 0, all 5 mice in group 4 were administrated i.p./i.v. with test article daily for 8
3″ 1.2″ On day 0, all groups of mice were hydrodynamicly injected via tail vein with pcDNA3.1/HBV plasmid DNA in a volume of normal saline equal to 8% of a mouse body weight. The plasmid DNA solution for injections was prepared one day before injection and then stored in 4GC until injection”
[…] […] For group 4, the last dosing was carried out 4 hours post HOI.
3.1.4. All mice were submandibularly blec! for plasma preparation according to the design in Table 1.
3.1.5. All mice were sacrificed and c!issectec! to obtain livers (two pieces of left lobe, one piece of middle lobe and one piece of right lobe) according to the regimen in table 1. Isolated livers were snap frozen in liquid nitrogen immec!iately upon collected.
3.2.1.1 Isolate DNA from 50 pi plasma using QIAamp 96 DNA Blood Kit. DNA was eluted with
3.2.12 Run qPCR for HBV DNA quantification.
To eliminate the influence of input HBV plasmid, primers and probe targeting HBV sequence which detect newly replicated HBV DNA and input HBV plasmid DNA and targeting pcDNA3.1 plasmid backbone sequence which only detect the input plasmid DNA were used to do real-time PCR, respectively”
HBV DNA quantity=DNA determined by HBV primer-DNA determined by plasmid primer.
Dilute the plasma 500 fold;
Detect HBsAg level in 50 pl diluted plasma by using HBsAg ELISA kit.
a) Homogenize the liver tissue with Qiagen Tissue Lyser in 10 mM Tris.HCI, 10 mM EDTA, pH7.5.
The total liver DNA was diluted to 10 ng/pl. Use 10 iJI diluted sample to run real-time PCR. HBV DNA quantity=DNA determined by HBV primer-DNA determined by plasmid primer.
a) Load 50 pg DNA for each sample. Run •1.2% agarose gel in 1×TAE.

[2] = tested on: New Zealand white rabbit fed with high fat diet; conditions: rabbit, in vivo
Description: The treatment groups were given APOAJ via auricular vein once a week Vehicle controls received normal saline via auricular vein once a week. […] The body weight of animal was determined every week and whole blood was drawn every three weeks. The study duration was 19 weeks. At the end of study, all animals were sacrificed. […] Male New Zealand white rabbits were used in this study. […] Blood samples were taken 12 hour after fasting before study to determine the blood lipid parameters. […] Ten to 14 rabbits were in one group. […] First dose was given 1 week before high fat diet. […] 5.2 blood lipid parameters: whole blood was drawn every three weeks. Animals were subject to 12 hour fast before taking blood. […] The upper layer of serum was then separated and examined for total cholesterol (TC), total triglyceride (TG), low density lipoprotein cholesterin (LDL-C), and high density lipoprotein cholesterin (HDL-C). Test reagents were purchased from Shanghai A: The atherosclerosis of aorta (plaque area lj) B: Liver index C: Aorta, liver, heart, arteria carotis, kidney All animals were anesthetized by 20 of ethyl carbamate and then sacrificed with air injection. Abdomen cavity was opened. Whole blood was taken from heart. Heart was harvested along with 7 em of aorta. Then other organs like liver, kidney and arteria carotis were harvested. […] Pictures were taken then. Aorta was cut from aortic arch, opened longitudinally and taken picture. […] One piece of this sample was fixed in fomlalin for further pathological analysis. The weight of liver was determined immediately. Two pieces of specimen were cut from hepatic lobe. One was kept in cryo-preservation tube for lipid analysis and another one was fixed in formalin for further pathological analysis. Animals were fast for 12 hours before taking blood samples via auricular vein. […] Test reagents were purchased from Shanghai Rong Sheng Bio-pharmaceutical Co. Ltd. The aorta was dissected and opened for 7.5 em from aortic arch longitudinally. Pictures were taken and atherosclerosis changing was analyzed.

Influenza H1N1 A/WSN/33 [3] = type: in vivo, BALB/c mice
Influenza H1N1 A/WSN/33 [4] = type: in vivo, BALB/c mice; remark: listed apart in the source
Influenza H1N1 A/WSN/33 [5] = type: in vivo, BALB/c mice; conditions: oseltamivir 30 mg/kg/day po/bid
db/db mice = tested on: db/db mice
Description: Fasting 6 hours and overnight blood glucose were measured. 60 db/db mice were assigned into 5 grouped based on the fasting 6 h blood glucose and body weight. […] 8 db/rn lean mice was used as negative control group […]
5.2. Study duration: This study was conducted in two periods: Period 1: Oct. 13, 2011-Feb. […] 13-Mar. 16, 2012: Test 3 antibody products
Feb. 13, 2012: Start the treatment with 3 antibodies by i.p every two days (Monday, Wednesday, Friday) after 8 weeks washout from previous treatment.
Antibody products were administrated by intraperitoneal injection and the positive compound was mixed into food at the dose 30 rng/kg/day.
5.4. Body weight and blood glucose measurement: Fasting 6 hours body weight and blood glucose concentration were measured by Roche giucometer weekly.
5.5. Plasma insulin measurement: About 30 ul of blood sample was collected from the orbital vein for each mouse and centrifuged 7000 rpm at 4° C. for 5 min. Plasma samples were saved in −70 l-::. The plasma insulin level was measured with EUSA kit (CRYSTAL, cat#90080), 5.6. Plasma lipid profile measurement: The plasma lipid profile were measured by the DaAn Clinic central lab.
5.7. Study taken down: After 14 dose antibody products treatment, all mice were sacrificed. Measure body weight and collect blood sample for each mouse. Measure liver weight and save one piece for pathology study and freeze one piece in liquid nitrogen for further analysis in the future. Save pancreas into 4% paraformaldehyde (PFA) fixation solution for future analysis.
as §1

HCV = HCV replicon dose-dependent curves (figure legends, genotype not stated); type: cell-based; conditions: FIG. 44/45 legends
Text: FIGS. 44-1 through 44-18.
FIGS. 451 through 45-18-.
FIGS. 44-1 through 44-18. Dose-dependent curves (CC 50 values)
FIG. 45-1 through 45-18 Dose-dependent curves (EC50 values)

[6] = tested on: 4T1-luc breast cancer cells; conditions: vs vehicle group
Description: The cell suspension was carried to the animal room in an ice box. […] Totally 80 mice were selected and divided into 10 groups. All mice were monitored daily.
Tumor growth status was monitored by both IVIS Lumina II and a digital caliper twice weekly since the day after cell implantation.
For IVIS Lumina II measurement, bioluminescence intensity of primary tumor and metastatic tumor was obtained according to the following procedure:
1. Tumor-bearing mice were \Neighted and intra peritoneally administered luciferin at a dose of 150 mg/kg (10 ml/kg);
2. After 10 min, mice were pre-anesthetized with the mixture of oxygen and isoflurane. […]
3. ROI data was calculated with IVIS Lumina II software and relative ROI was calculated to express the tumor growth status. […]
Tumor size was measured twice a week in two dimensions using a caliper. and the tumor volume (V) was expressed in mm3 using the formula: V=0.5 a×b2 where a and bare the long and short diameters […]
2. […] Body weights were measured and recorded twice weekly.
TGI (tumor growth inhibition, in percent) was calculated according to the following equation: […]
T/C (%) was calculated based on the tumor volume data collected on Day 27.
The difference between the mean values of tumor volume in treatment and vehicle groups was analyzed for significance using one way ANOVA test at each time point after log transformation.

## CC(C)c1c(C(=O)Nc2ccccc2)c(-c2ccccc2)c(-c2ccc(F)cc2)n1CC[C@@H](O)C[C@@H](O)CC(=O)O [Atorvastatin, reference compound]
[1]; APOA1 mid dose and low dose, not significant vs vehicle
  arteriosclerosis plaque lesion in the region of thoracic aorta (root plaque area): trend of reducing the arteriosclerosis plaque lesion
[1]; after 8 weeks treatment vs vehicle
  fasting overnight blood glucose: no effect
[1]; after 8 weeks treatment, APOA1 low dose
  atherosclerosis plaque lesion area of aorta: significant reduced the plaque lesion area
[1]; atorvastatin 20 mg/kg, after 8 weeks treatment
  Liver weight: reduced liver weight and the ratio of liver/body weight significantly
[1]; atorvastatin p=0.08
  atherosclerosis plaque lesion from the aortic root to right renal artery: trend of reducing the atherosclerosis plaque lesion
[1]; vs vehicle group, atorvastatin after 5 weeks treatment
  body weight: significantly reduced the body weight

## C=C1[C@H](CO)[C@@H](O)C[C@@H]1n1cnc2c(=O)[nH]c(N)nc21 [ETV, Entecavir]
HBV; ETV day 5, RASS 8 prophylactic treatment day 7
  HBV intermediate DNA in livers (real-time PCR): significantly decreased the HBV intermediate DNA in liver
HBV; RASS 8 prophylactic treatment or ETV treatment
  ssDNA, HBV replication intermediate DNA in livers (southern blot): decreased dramatically
HBV; therapeutically treated, from day 3 post HDI to end
  inhibition to the HBV replication (plasma): significant inhibition
HBV; within 5 days post HBV HDI, RASS 8 therapeutic and prophylactic
  HBsAg level in plasma (ELISA): didn't have significant inhibition

## CC(C)c1c(C(=O)Nc2ccccc2)c(-c2ccccc2)c(-c2ccc(F)cc2)n1CC[C@@H](O)C[C@@H](O)CC(=O)O [Liptor, reference compound]
[2]
  calcification, pathological examination: one animal with calcification

## CCOC(=O)C1=C[C@@H](OC(CC)CC)[C@H](NC(C)=O)[C@@H](N)C1 [Oseltamivir, Oseltamivir phosphate (prodrug)]
Influenza H1N1 A/WSN/33 [3]; mouse, in vivo
  body weights dropped by: < 15%
Influenza H1N1 A/WSN/33 [3]; oseltamivir 1 mg/kg orally twice daily for 8 days
  survival: survived and 4 out of 5
Influenza H1N1 A/WSN/33 [4]; H1N1 + Oseltamivir 1 mg/kg, P<0.01 vs vehicle
  Mean day to death ± S.D.: >10 ± 0.0 days
Influenza H1N1 A/WSN/33 [4]; oseltamivir po/bid
  survival: survived completely
Influenza H1N1 A/WSN/33 [5]
  survival: survived completely

## CCOC(=O)C1=C[C@@H](OC(CC)CC)[C@H](NC(C)=O)[C@@H](N)C1 [Oseltarnivir]
Influenza H1N1 A/WSN/33 [3]; H1N1 + Oseltamivir po BID, dose cell prints 0.2/0.4 ml/mouse
  Survivor/total: 4/4
Influenza H1N1 A/WSN/33 [3]; H1N1 + Oseltamivir po BID, dose cell prints 0.2/0.4 ml/mouse, P<0.001 vs vehicle
  Mean day to death ± S.D.: >14 ± 0.0 days

## CCc1ccc(CCOc2ccc(CC3SC(=O)NC3=O)cc2)nc1 (stereo not drawn) [Pioglitazone]
db/db mice; Part 1, Positive group (30 mg/kg/day in food)
  dead mice: kidney infection: 1
db/db mice; db/db, mouse, in vivo, 32 days
  dead mice: kidney bleeding: 1
db/db mice; period 1
  fasting overnight BG: significantly lower blood glucose
db/db mice; period 1, AFOD 3 doses after 3 weeks, pioglitazone after 2 weeks
  body weight: significantly increased body weight
db/db mice; period 1, pioglitazone after 1 week, AFOD low dose after 8 doses
  blood glucose (fasting 6 h): significantly reduced blood glucose
db/db mice; period 2
  blood glucose (fasted 6 h): significant difference on blood glucose
  liver weight and ratio of liver/body weight: effect on reducing the ratio
db/db mice; period 2, after 4 weeks treatment
  overnight fasting blood glucose: significantly reduced the fasting overnight blood glucose level
db/db mice; period 2, after 5 weeks treatment
  plasma triglyceride level: significantly lowered
db/db mice; period 2, vs vehicle group
  body weight: effect on increasing body weight
db/db mice; period 2, AFOD after 14 doses (p=0.054), pioglitazone after 5 weeks (p=0.051)
  plasma insulin resistance (HOMA-IR): trend on improving insulin resistance

## NC(=O)c1ncn([C@@H]2O[C@H](CO)[C@@H](O)[C@H]2O)n1 [Ribavirin]
HCV
  inhibition of HCV: 50%

## Nc1ccn([C@@H]2O[C@H](CO)[C@@H](O)C2(F)F)c(=O)n1 [gemcitabine, reference compound]
[6]; Day 20
  one-way ANOVA analysis on tumor volume changes: *′**
[6]; gemcitabine since day 13
  tumor volume: significant tumor volume reduction

## APOA 1
[1]; APOA 1 high dose group
  Wounded (number of mice): 1
[1]; APOA 1 high dose group, reason: Kidney infection & i.v injection
  Dead (number of mice): 2
[1]; APOA 1 mid dose group
  Wounded (number of mice): 1
[1]; APOA 1 mid dose group, reason: Blood collection
  Dead (number of mice): 1
